Activity calls are given as the source filed them. Numbered stars: 1 amine (or outer) side, 2 acyl side, 3 side chain; on linkers, the order of the positions; unused ones are H or OH. Square brackets hold non-standard residues; d marks the D form. Peptide text beside a SMILES is read from it. X1 = CN1CCC(COc2ccc3oc4c(N(CC(=O)[*:2])[*:1])c5ccccc5nc4c3c2)CC1

For assay [1], the species on record is Homo sapiens. As to the kind of experiment: Binding affinity to biotin-labeled human 5'-UGAUGAGUGUGAGGAGGA-3' RNA G-quadruplex by SPR analysis. A general note: In SPR one partner is held on a chip, and binding of the other changes the refractive index at the surface.
For assay [2], the species on record is Homo sapiens. In words: Binding affinity to biotin-labeled human wild type internal ribosome entry site A RNA G-quadruplex by SPR analysis.
The nature of assay [3]: Binding affinity to biotin-labeled DNA hairpin (unknown origin) by SPR analysis.
The species named for assay [4] is Homo sapiens. In words: Destabilization of human 5'-UGAAGAGUGUGAGUAGUA-3' RNA expressed in MCF7 cells assessed as down regulation of VEGF-A translation at up to 1.5 uM after 24 hrs by dual-luciferase reporter gene assay. It is filed as cell-based.
The species entered for assay [5] is Homo sapiens. In words: Destabilization of human wild type internal ribosome entry site A RNA G-quadruplex assessed as melting temperature at 5 uM by CD spectra method (reference value: 80.9 +/- 0.8 degreeC).
For assay [6], the species on record is Homo sapiens. As to the kind of experiment: Destabilization of human wild type internal ribosome entry site A RNA G-quadruplex expressed in MCF7 cells assessed as down regulation of VEGF-A translation up to 0.5 uM after 24 hrs by dual-luciferase reporter gene assay relative to control. The class given is cell-based.

As for `CCN(CC)CCCNc1c2ccccc2[n+](C)c2c1oc1ccc(OCC[N+](C)(C)C)cc12`, the result (in the assay listed under Homo sapiens [1]; in the assay listed under Homo sapiens [2]; in assay [3]) was Active.

Take `CN(C)CCCNC(=O)COc1ccc2oc3c(NCCCN(C)C)c4ccccc4[n+](C)c3c2c1`: the result (in the assay filed under Homo sapiens [1]; in the assay listed under Homo sapiens [2]; in assay [3]) was Active.

As for `CCN(CC)CCNc1c2ccccc2[n+](C)c2c1oc1ccc(OCC[N+](C)(C)C)cc12`, the outcome (in the assay listed under Homo sapiens [1]; in the assay filed under Homo sapiens [2]; in assay [3]) was Active.

Consider `CN(C)CCCNc1c2ccccc2[n+](C)c2c1oc1ccc(OCC[N+]3(C)CCOCC3)cc12`, for which the result (in the assay listed under Homo sapiens [1]; in the assay filed under Homo sapiens [2]; in assay [3]) was Active.

On to `C[n+]1c2ccccc2c(NCCN2CCCCC2)c2oc3ccc(OCC[N+](C)(C)C)cc3c21`, for which the result (in the assay filed under Homo sapiens [1]; in the assay listed under Homo sapiens [2]; in assay [3]) was Active.

For `C[n+]1c2ccccc2c(NCCN2CCCCC2)c2oc3ccc(OCC[N+]4(C)CCCCC4)cc3c21`, the outcome (in the assay listed under Homo sapiens [1]; in the assay listed under Homo sapiens [2]; in assay [3]) was Active.

Take `CN(C)CCNc1c2ccccc2[n+](C)c2c1oc1ccc(OCC[N+]3(C)CCOCC3)cc12`: the outcome (in the assay listed under Homo sapiens [1]; in the assay listed under Homo sapiens [2]; in assay [3]) was Active.

`CN(C)CCNc1c2ccccc2[n+](C)c2c1oc1ccccc12`: the outcome (in the assay listed under Homo sapiens [1]; in the assay listed under Homo sapiens [2]; in assay [3]) was Active.

On to `CCN(CC)CCCNc1c2ccccc2[n+](C)c2c1oc1ccc(OCC[N+]3(C)CCCCC3)cc12`, for which the outcome (in the assay listed under Homo sapiens [1]; in the assay filed under Homo sapiens [2]; in assay [3]) was Active.

In the case of `COc1ccc2cc3[n+](cc2c1NCCCN1CCCC1)CCc1cc2c(cc1-3)OCO2`, the outcome (in the assay listed under Homo sapiens [1]; in the assay listed under Homo sapiens [2]; in assay [3]) was Active.

For the molecule `C[n+]1c2ccccc2c(NCCCN2CCOCC2)c2oc3ccc(OCC[N+](C)(C)C)cc3c21`, the result (in the assay listed under Homo sapiens [1]; in the assay listed under Homo sapiens [2]; in assay [3]) was Active.

For `C[n+]1c2ccccc2c(NCC(=O)NCC(=O)NC(CCCNC(=N)N)C(=O)O)c2oc3ccccc3c21` (centres undefined), the outcome (in the assay listed under Homo sapiens [1]; in the assay listed under Homo sapiens [2]; in assay [3]) was Active.

`COc1ccc2cc3[n+](cc2c1NCCCN1CCCCC1)CCc1cc2c(cc1-3)OCO2`: the outcome (in the assay listed under Homo sapiens [1]; in the assay listed under Homo sapiens [2]; in assay [3]) was Active.

For `CN(C)CCCNc1c2ccccc2[n+](C)c2c1oc1ccc(OCC3CC[N+](C)(C)CC3)cc12`, the result (in the assay listed under Homo sapiens [1]; in the assay filed under Homo sapiens [2]; in assay [3]) was Active.

For the molecule `COc1ccc2cc3[n+](cc2c1NCCc1ccccc1)CCc1cc2c(cc1-3)OCO2`, the result (in the assay listed under Homo sapiens [1]; in the assay listed under Homo sapiens [2]; in assay [3]) was Active.

For the molecule `CCN(CC)CCNC(=O)COc1ccc2oc3c(NCCN(CC)CC)c4ccccc4[n+](C)c3c2c1`, the outcome (in the assay listed under Homo sapiens [1]; in the assay listed under Homo sapiens [2]; in assay [3]) was Active.

`CCN(CC)CCCNc1c2ccccc2[n+](C)c2c1oc1ccc(OCC3CC[N+](C)(C)CC3)cc12`: the outcome (in the assay listed under Homo sapiens [1]; in the assay listed under Homo sapiens [2]; in assay [3]) was Active.

Take `CN(C)CCNc1c2ccccc2[n+](C)c2c1oc1ccc(OCC[N+](C)(C)C)cc12`: the result (in the assay listed under Homo sapiens [1]; in the assay filed under Homo sapiens [2]; in assay [3]) was Active.

Regarding `CN1CCC(COc2ccc3oc4c(NCC(=O)NCC(=O)NC(CCCNC(=N)N)C(=O)NC(CC(=O)O)C(=O)O)c5ccccc5nc4c3c2)CC1` (centres undefined), the outcome (in the assay filed under Homo sapiens [1]; in the assay listed under Homo sapiens [2]; in assay [3]) was Active.

In the case of `CN(C)CCCNc1c2ccccc2[n+](C)c2c1oc1ccc(OCC[N+](C)(C)C)cc12`, the outcome (in the assay listed under Homo sapiens [1]; in the assay filed under Homo sapiens [2]; in assay [3]) was Active.

Turning to `C[n+]1c2ccccc2c(NCCCO)c2[nH]c3ccccc3c21`, the result (in the assay listed under Homo sapiens [1]; in the assay filed under Homo sapiens [2]; in assay [3]) was Active.

For `CCN(CC)CCNc1c2ccccc2[n+](C)c2c1oc1ccc(OCC3CC[N+](C)(C)CC3)cc12`, the outcome (in the assay filed under Homo sapiens [1]; in the assay listed under Homo sapiens [2]; in assay [3]) was Active.

On to `COc1ccc2cc3[n+](cc2c1NCCCN1CCOCC1)CCc1cc2c(cc1-3)OCO2`, for which the outcome (in the assay listed under Homo sapiens [1]; in the assay listed under Homo sapiens [2]; in assay [3]) was Active.

Take `C[n+]1c2ccccc2c(NCCN2CCCCC2)c2oc3ccc(OCC[N+]4(C)CCOCC4)cc3c21`: the result (in the assay filed under Homo sapiens [1]; in the assay filed under Homo sapiens [2]; in assay [3]) was Active.

As for `NC(=O)c1ccccc1NC(=O)c1ccccc1[N+](=O)[O-]`, in the assay filed under Homo sapiens [4], the result was inactive.

Turning to `CN(C)CCCNc1c2ccccc2[n+](C)c2c1oc1ccc(OCCC[N+](C)(C)C)cc12`, the result (in the assay listed under Homo sapiens [1]; in the assay listed under Homo sapiens [2]; in assay [3]) was Active.

Take `CN(C)CCCNc1c2ccccc2[n+](C)c2c1oc1ccc(OCC[N+]3(C)CCCCC3)cc12`: the result (in the assay filed under Homo sapiens [1]; in the assay filed under Homo sapiens [2]; in assay [3]) was Active.

As for `C[n+]1c2ccccc2c(NCCN2CCOCC2)c2oc3ccc(OCC[N+]4(C)CCOCC4)cc3c21`, the outcome (in the assay listed under Homo sapiens [1]; in the assay listed under Homo sapiens [2]; in assay [3]) was Active.

In the case of `CN1CCC(COc2ccc3oc4c(NCC(=O)NCC(=O)NC(CCCNC(=N)N)C(=O)NC(CO)C(=O)O)c5ccccc5nc4c3c2)CC1` (centres undefined), the outcome (in the assay listed under Homo sapiens [1]; in the assay listed under Homo sapiens [2]; in assay [3]) was Active.

For `CN(C)CCCNC1C2=Nc3ccccc3C2=Nc2ccccc21` (centres undefined), the Tm in the assay listed under Homo sapiens [5] is above 81 °C. Besides, the result in the assay listed under Homo sapiens [6] was inactive.

Consider `CCN(CC)CCCNc1c2ccccc2[n+](C)c2c1[nH]c1ccccc12`, for which the outcome (in the assay filed under Homo sapiens [1]; in the assay listed under Homo sapiens [2]; in assay [3]) was Active.

Consider `CN(C)CCNc1c2ccccc2[n+](C)c2c1oc1ccc(OCC3CC[N+](C)(C)CC3)cc12`, for which the result (in the assay filed under Homo sapiens [1]; in the assay listed under Homo sapiens [2]; in assay [3]) was Active.

On to `CCN(CC)CCNc1c2ccccc2[n+](C)c2c1[nH]c1ccccc12`, for which the outcome (in the assay filed under Homo sapiens [1]; in the assay filed under Homo sapiens [2]; in assay [3]) was Active.

As to `C[n+]1c2ccccc2c(NCCCN2CCOCC2)c2oc3ccc(OCCC[N+](C)(C)C)cc3c21`, the result (in the assay filed under Homo sapiens [1]; in the assay listed under Homo sapiens [2]; in assay [3]) was Active.

For the molecule `CN(C)CCNc1c2ccccc2[n+](C)c2c1oc1ccc(OCCC[N+](C)(C)C)cc12`, the outcome (in the assay listed under Homo sapiens [1]; in the assay listed under Homo sapiens [2]; in assay [3]) was Active.

As for `C[n+]1c2ccccc2c(NCCCN2CCOCC2)c2oc3ccc(OCC[N+]4(C)CCOCC4)cc3c21`, the result (in the assay filed under Homo sapiens [1]; in the assay filed under Homo sapiens [2]; in assay [3]) was Active.

Regarding `C[n+]1c2ccccc2c(NCCN2CCOCC2)c2oc3ccc(OCC[N+](C)(C)C)cc3c21`, the result (in the assay filed under Homo sapiens [1]; in the assay filed under Homo sapiens [2]; in assay [3]) was Active.

In the case of `C[n+]1c2ccccc2c(NCCCN2CCOCC2)c2oc3ccc(OCC4CC[N+](C)(C)CC4)cc3c21`, the result (in the assay filed under Homo sapiens [1]; in the assay listed under Homo sapiens [2]; in assay [3]) was Active.

Regarding `CN1CCC(COc2ccc3oc4c(NCC(=O)NCC(=O)NC(CCCNC(=N)N)C(=O)NC(CCCNC(=N)N)C(=O)NCC(=O)O)c5ccccc5nc4c3c2)CC1` (centres undefined) (H-[X1]GRRG-OH; configuration not given here), the outcome (in the assay listed under Homo sapiens [1]; in the assay filed under Homo sapiens [2]; in assay [3]) was Active.

On to `CCN(CC)CCNc1c2ccccc2[n+](C)c2c1oc1ccc(OCCC[N+](C)(C)C)cc12`, for which the outcome (in the assay filed under Homo sapiens [1]; in the assay listed under Homo sapiens [2]; in assay [3]) was Active.

`COc1ccc2cc3[n+](cc2c1NCCCN(C)C)CCc1cc2c(cc1-3)OCO2`: the result (in the assay filed under Homo sapiens [1]; in the assay listed under Homo sapiens [2]; in assay [3]) was Active.

Consider `CCN(CC)CCCNc1c2ccccc2[n+](C)c2c1oc1ccc(OCC(=O)NCCCN(C)C)cc12`, for which the outcome (in the assay filed under Homo sapiens [1]; in the assay filed under Homo sapiens [2]; in assay [3]) was Active.

Take `CCN(CC)CCCNc1c2ccccc2[n+](C)c2c1oc1ccc(OCC[N+]3(C)CCOCC3)cc12`: the outcome (in the assay listed under Homo sapiens [1]; in the assay listed under Homo sapiens [2]; in assay [3]) was Active.

On to `C[n+]1c2ccccc2c(NCCN2CCCCC2)c2oc3ccc(OCC(=O)NCCN4CCCCC4)cc3c21`, for which the result (in the assay filed under Homo sapiens [1]; in the assay listed under Homo sapiens [2]; in assay [3]) was Active.

Source of the values: ChEMBL document CHEMBL4014333, “Discovery of Small Molecules for Repressing Cap-Independent Translation of Human Vascular Endothelial Growth Factor (hVEGF) as Novel Antitumor Agents” (J Med Chem, 2017).
